Reference: patent US20220274979A1 (Bayer Pharma Aktiengesellschaft, priority 2018, published 2022)

Experiments:
[1] = molecular target: T1, hSOS1 (hSOS1-mediated nucleotide exchange of hK-RasG12C) (Homo sapiens, UniProt Q07889); test: Biochemical Assay 2: hK-RasG12C activation assay by hSOS1 at high GTP concentration (HTRF nucleotide exchange); details: high GTP (50 μM GTP)
T1 construct: hSOS1 (amino acid 564-1049); made in house; host or cells: E. coli BL21 (DE3)
T1 sequence (Q07889 with tags, fused parts or gaps): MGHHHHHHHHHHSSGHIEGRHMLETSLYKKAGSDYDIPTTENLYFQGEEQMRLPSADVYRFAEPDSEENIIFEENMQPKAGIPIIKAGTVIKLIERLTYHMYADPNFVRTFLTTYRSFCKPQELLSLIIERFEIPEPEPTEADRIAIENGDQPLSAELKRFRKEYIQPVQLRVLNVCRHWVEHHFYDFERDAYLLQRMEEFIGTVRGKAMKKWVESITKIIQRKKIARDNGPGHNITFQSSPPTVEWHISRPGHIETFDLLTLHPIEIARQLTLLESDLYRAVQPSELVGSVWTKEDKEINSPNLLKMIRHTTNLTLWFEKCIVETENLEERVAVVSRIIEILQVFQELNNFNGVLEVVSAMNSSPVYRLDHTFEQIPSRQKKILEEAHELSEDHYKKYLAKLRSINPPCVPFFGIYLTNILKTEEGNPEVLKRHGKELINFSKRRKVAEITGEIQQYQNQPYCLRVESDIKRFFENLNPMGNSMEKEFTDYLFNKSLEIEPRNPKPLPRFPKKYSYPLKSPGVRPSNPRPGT

[2] = molecular target: T2, hK-RasG12C - hSOS1 interaction (Homo sapiens, UniProt Q07889); test: Biochemical Assay 1: hK-RasG12C interaction assay with hSOS1 (HTRF); format: binding; details: values expressed as IC50
T2 construct: hSOS1 (amino acid 564-1049); made in house; host or cells: E. coli BL21 (DE3)
T2 sequence (Q07889 with tags, fused parts or gaps): T1 sequence (Q07889 with tags, fused parts or gaps)
In short: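 HTRF signal between GST-hK-RasG12C (10 nM working solution, anti-GST-Eu) and His-hSOS1 (20 nM working solution, anti-6His-XL665) was read in HEPES pH 7.4 buffer with 10 mM EDTA, 1 mM DTT and 100 mM KF at 20 °C.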

Cc1nc(NC(C)c2ccc(-c3ccccc3CN(C)C)s2)c2cc(N3CC(NC(=O)Cc4ccccc4)C3)ncc2n1 (centres unmarked) [Example 89, N-[1-(4-{[1-(5-{2-[(dimethylamino)methyl]phenyl}thiophen-2-yl)ethyl]amino}-2-methylpyrido[3,4-d]pyrimidin-6-yl)azetidin-3-yl]-2-phenylacetamide]
IC50 [1]: 0.111 µM | IC50 [2]: 0.0444 µM

Cc1nc(NC(C)c2ccc(-c3ccccc3CN(C)C)s2)c2cc(N3CC(NC(=O)C4CCCCC4)C3)ncc2n1 (centres unmarked) [Example 90, N-[1-(4-{[1-(5-{2-[(dimethylamino)methyl]phenyl}thiophen-2-yl)ethyl]amino}-2-methylpyrido[3,4-d]pyrimidin-6-yl)azetidin-3-yl]cyclohexanecarboxamide]
IC50 [1]: 0.154 µM | IC50 [2]: 0.063 µM

Cc1nc(NC(C)c2ccc(-c3ccccc3CN(C)C)s2)c2cc(N3CC(NC(=O)CC4CC4)C3)ncc2n1 (centres unmarked) [Example 91, 2-cyclopropyl-N-[1-(4-{[1-(5-{2-[(dimethylamino)methyl]phenyl}thiophen-2-yl)ethyl]amino}-2-methylpyrido[3,4-d]pyrimidin-6-yl)azetidin-3-yl]acetamide]
IC50 [1]: 0.137 µM | IC50 [2]: 0.0551 µM

Cc1nc(NC(C)c2ccc(-c3ccccc3CN(C)C)s2)c2cc(N3CC(N)C3)ncc2n1 (centres unmarked) [Example 93, 6-(3-aminoazetidin-1-yl)-N-[1-(5-{2-[(dimethylamino)methyl]phenyl}thiophen-2-yl)ethyl]-2-methylpyrido[3,4-d]pyrimidin-4-amine]
IC50 [1]: 0.0692 µM | IC50 [2]: 0.0335 µM

Cc1nc(NC(C)c2ccc(-c3ccccc3CN(C)C)s2)c2cc(N3CC(NS(=O)(=O)c4ccccc4)C3)ncc2n1 (centres unmarked) [Example 94, N-[1-(4-{[1-(5-{2-[(dimethylamino)methyl]phenyl}thiophen-2-yl)ethyl]amino}-2-methylpyrido[3,4-d]pyrimidin-6-yl)azetidin-3-yl]benzenesulfonamide]
IC50 [1]: 0.163 µM | IC50 [2]: 0.0572 µM

Cc1nc(NC(C)c2ccc(-c3ccccc3CN(C)C)s2)c2cc(N3CC(NS(=O)(=O)Cc4ccccc4)C3)ncc2n1 (centres unmarked) [Example 95, N-[1-(4-{[1-(5-{2-[(dimethylamino)methyl]phenyl}thiophen-2-yl)ethyl]amino}-2-methylpyrido[3,4-d]pyrimidin-6-yl)azetidin-3-yl]-1-phenylmethanesulfonamide]
IC50 [1]: 0.24 µM | IC50 [2]: 0.107 µM

Cc1nc(NC(C)c2ccc(-c3ccccc3CN(C)C)s2)c2cc(N3CC(NC(=O)Nc4ccccc4)C3)ncc2n1 (centres unmarked) [Example 96, 1-[1-(4-{[1-(5-{2-[(dimethylamino)methyl]phenyl}thiophen-2-yl)ethyl]amino}-2-methylpyrido[3,4-d]pyrimidin-6-yl)azetidin-3-yl]-3-phenylurea]
IC50 [1]: 0.226 µM | IC50 [2]: 0.0766 µM
